In PubChem BioAssay (NCI):
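Briefly, cells in 96-well plates were exposed to five compound concentrations for 48 h, and endpoints were estimated by linear interpolation. GI50: concentration for 50% inhibition of growth. TGI: total growth inhibition.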

Key:
Experiment in all cases: growth of human tumour cells (NCI), 48 h
OVCAR-8 ovarian = test system: OVCAR-8 ovarian
HL-60(TB) leukemia = test system: HL-60(TB) leukemia
SK-MEL-28 melanoma = test system: SK-MEL-28 melanoma
786-0 renal = test system: 786-0 renal
IGROV1 ovarian = test system: IGROV1 ovarian
NCI-H460 lung = test system: NCI-H460 lung
A549 NSCLC = test system: A549 NSCLC
OVCAR-3 ovarian = test system: OVCAR-3 ovarian
CCRF-CEM leukemia = test system: CCRF-CEM leukemia
SR leukemia = test system: SR leukemia

Row | SMILES | GI50 (OVCAR-8 ovarian) | TGI (OVCAR-8 ovarian) | GI50 (HL-60(TB) leukemia) | TGI (HL-60(TB) leukemia) | GI50 (SK-MEL-28 melanoma) | TGI (SK-MEL-28 melanoma) | GI50 (786-0 renal) | TGI (786-0 renal) | GI50 (IGROV1 ovarian) | TGI (IGROV1 ovarian) | GI50 (NCI-H460 lung) | TGI (NCI-H460 lung) | GI50 (A549 NSCLC) | TGI (A549 NSCLC) | GI50 (OVCAR-3 ovarian) | TGI (OVCAR-3 ovarian) | GI50 (CCRF-CEM leukemia) | TGI (CCRF-CEM leukemia) | GI50 (SR leukemia) | TGI (SR leukemia)
1 | CCCN(CCC)c1ccc(C=O)c(OC)c1 | 27.5 µM | > 100 µM | 12.4 µM | 38 µM | 21.3 µM | 83.9 µM | 29.4 µM | > 100 µM | 32.8 µM | > 100 µM | 24 µM | > 100 µM | 28.3 µM | > 100 µM | 15.1 µM | 33.9 µM | 24.4 µM | > 100 µM | 10.7 µM | 34.5 µM
2 | CCCCCCCCOC(=O)c1cc(O)c(O)c(O)c1 | 3.14 µM | 37.5 µM | 0.486 µM | 5.02 µM | 7.19 µM | 29.6 µM | 2.46 µM | 11.9 µM | 0.913 µM | 4.88 µM | 2.73 µM | 10.9 µM | 12.7 µM | 49 µM | 2.03 µM | 14.9 µM | 0.314 µM | > 42.8 µM | 0.352 µM | 10.3 µM
3 | N#C/C(=C/c1cccs1)c1cccs1 | > 100 µM | > 100 µM | > 100 µM | > 100 µM | > 100 µM | > 100 µM | > 100 µM | > 100 µM | > 100 µM | > 100 µM | > 100 µM | > 100 µM | > 100 µM | > 100 µM | > 100 µM | > 100 µM | > 100 µM | > 100 µM | > 100 µM | > 100 µM
4 | COc1ccc(S(=O)(=O)N2CCCCC2)cc1NC(=O)c1[nH]c(C)c2c1CCCCC2=O | 2.19 µM | 46.6 µM | 0.444 µM | 6.86 µM | 2.72 µM | > 100 µM | 1.06 µM | > 100 µM | 1.45 µM | 44.3 µM | 4.01 µM | > 100 µM | 2.26 µM | 15 µM | 2.64 µM | > 100 µM | 3.14 µM | > 100 µM | 0.762 µM | > 100 µM
5 | C=C(C)[C@@H]1CC[C@]2(C)[C@H](CC=C3[C@@H]4CC(C)(C)CC[C@]4(C(=O)OC)CC[C@]32C)[C@@]1(C)CC/C(N)=N/O | 2.27 µM | 6.29 µM | 2.47 µM | 7.62 µM | 2.3 µM | 5.57 µM | 1.76 µM | 3.19 µM | 2.05 µM | 6.09 µM | 1.89 µM | 4.03 µM | 2.15 µM | 7.75 µM | 1.67 µM | 3.18 µM | 2.19 µM | 6.2 µM | 1.81 µM | 5.2 µM
6 | c1ccc2c(c1)[Se]c1ccccc1[Se]2 |  | > 100 µM |  | > 100 µM |  | > 100 µM |  | > 100 µM |  | > 100 µM |  | > 100 µM |  | > 100 µM |  | > 100 µM |  | > 100 µM |  | > 100 µM
7 | C/C(=C\c1ccccc1)C(O)S(=O)(=O)O (stereo not given) |  | > 100 µM |  | > 100 µM |  | > 100 µM |  | > 100 µM |  | > 100 µM |  | > 100 µM |  | > 100 µM |  | > 100 µM |  | > 100 µM |  | > 100 µM
8 | C=CC1(C)/C(=N\O)C(C)(CC)C(=O)N1O (stereo not given) |  | > 100 µM |  | > 100 µM |  | > 100 µM |  | > 100 µM |  | > 100 µM |  | > 100 µM |  | > 100 µM |  | > 100 µM |  | > 100 µM |  | > 100 µM
9 | COc1cccc(C(=O)O)c1Cc1cccc2ccccc12 |  | > 100 µM |  | > 100 µM |  | > 100 µM |  | > 100 µM |  | > 100 µM |  | > 100 µM |  | > 100 µM |  | > 100 µM |  | > 100 µM |  | > 100 µM
10 | CCCC(=O)C(CC)/C(CCC(=O)N(Cc1ccccc1)Cc1ccccc1)=N/NC(=O)C[N+](C)(C)C (stereo not given) |  | > 100 µM |  | > 100 µM |  | > 100 µM |  | > 100 µM |  | > 100 µM |  | > 100 µM |  | > 100 µM |  | > 100 µM |  | > 100 µM |  | > 100 µM
11 | CC(C)NCCCNC1=C(Cl)C(=O)c2ccccc2C1=O | 2.13 µM | 5.1 µM | 2.2 µM | 5.03 µM | 2.16 µM | 3.92 µM | 18.1 µM | 33.5 µM | 2.33 µM | 5.16 µM | 3.96 µM | 16.4 µM | 11.2 µM | 33.5 µM | 1.83 µM | 3.58 µM | 3.56 µM | 17.6 µM | 2.27 µM | 6.08 µM
